Test results taken from ChEMBL document CHEMBL1157348, “The alkaloid conessine and analogues as potent histamine H3 receptor antagonists” (J Med Chem, 2008).
pIC50, pKi: −log10 of the molar value.

Tests used:
Histamine H3 receptor [1] = biological target: Histamine H3 receptor (Homo sapiens, UniProt Q9Y5N1); assay: Displacement of [3H]NAMH from human full length histamine H3 receptor expressed in rat C6 cells; assay type: cell-based
Histamine H3 receptor [2] = biological target: T1, Histamine H3 receptor (Rattus norvegicus, UniProt Q9QYN8); assay: Displacement of [3H]NAMH from histamine H3 receptor in rat cortex; settings: for pKi: read-out: Ki
T1 sequence (Q9QYN8 whole entry): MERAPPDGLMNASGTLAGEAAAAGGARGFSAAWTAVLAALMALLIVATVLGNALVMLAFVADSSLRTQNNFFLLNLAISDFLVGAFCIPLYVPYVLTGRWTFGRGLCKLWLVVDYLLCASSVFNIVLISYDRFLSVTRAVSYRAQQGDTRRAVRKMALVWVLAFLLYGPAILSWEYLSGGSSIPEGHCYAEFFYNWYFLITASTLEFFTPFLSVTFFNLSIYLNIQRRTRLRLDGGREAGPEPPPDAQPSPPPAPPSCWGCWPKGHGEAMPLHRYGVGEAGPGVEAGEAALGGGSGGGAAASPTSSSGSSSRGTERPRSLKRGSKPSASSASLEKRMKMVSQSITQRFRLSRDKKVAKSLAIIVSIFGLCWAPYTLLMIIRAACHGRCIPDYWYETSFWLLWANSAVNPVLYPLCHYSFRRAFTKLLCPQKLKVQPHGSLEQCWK

Histamine H3 receptor [3] = biological target: T1, Histamine H3 receptor; assay: Displacement of [3H]NAMH from rat full length histamine H3 receptor expressed in rat C6 cells; assay type: cell-based; settings: read-out: Ki
Histamine H3 receptor [4] = biological target: Histamine H3 receptor (Cavia porcellus, UniProt Q9JI35); assay: Antagonist activity at histamine H3 receptor in guinea pig ileum assessed as inhibition of (R)-alpha-methylhistamine-induced response
Chain of Histamine H3 receptor (Cavia porcellus, UniProt Q9JI35) (Q9JI35 whole entry): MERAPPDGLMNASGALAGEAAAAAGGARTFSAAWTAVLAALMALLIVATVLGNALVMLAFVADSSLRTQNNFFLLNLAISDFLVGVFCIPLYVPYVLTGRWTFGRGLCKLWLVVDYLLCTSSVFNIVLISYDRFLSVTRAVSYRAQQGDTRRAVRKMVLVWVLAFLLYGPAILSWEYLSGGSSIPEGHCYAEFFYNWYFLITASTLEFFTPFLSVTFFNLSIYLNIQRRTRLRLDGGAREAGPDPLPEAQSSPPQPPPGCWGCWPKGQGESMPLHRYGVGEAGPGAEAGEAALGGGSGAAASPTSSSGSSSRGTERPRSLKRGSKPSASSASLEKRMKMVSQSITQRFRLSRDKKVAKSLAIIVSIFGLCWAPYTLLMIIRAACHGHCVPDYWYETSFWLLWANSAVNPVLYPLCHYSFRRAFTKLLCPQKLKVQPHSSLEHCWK

Chain of Histamine H3 receptor (Homo sapiens, UniProt Q9Y5N1) (Q9Y5N1 whole entry): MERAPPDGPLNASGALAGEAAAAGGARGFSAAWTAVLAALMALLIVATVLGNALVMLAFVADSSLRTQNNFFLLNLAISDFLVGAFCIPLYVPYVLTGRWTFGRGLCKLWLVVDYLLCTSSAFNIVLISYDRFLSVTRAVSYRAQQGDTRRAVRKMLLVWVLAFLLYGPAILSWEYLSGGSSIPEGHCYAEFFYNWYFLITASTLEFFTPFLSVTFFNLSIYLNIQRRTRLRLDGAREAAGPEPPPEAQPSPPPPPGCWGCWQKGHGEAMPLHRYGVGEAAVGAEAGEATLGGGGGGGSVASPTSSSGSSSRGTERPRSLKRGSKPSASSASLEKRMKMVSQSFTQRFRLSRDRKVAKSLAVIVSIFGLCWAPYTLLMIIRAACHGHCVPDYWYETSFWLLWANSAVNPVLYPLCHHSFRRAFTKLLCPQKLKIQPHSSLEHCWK

Compound | pKi (Histamine H3 receptor [1]) | pKi (Histamine H3 receptor [2]) | pKi (Histamine H3 receptor [3]) | Ki (Histamine H3 receptor [2]; read-out: pKi (converted)) | pIC50 (Histamine H3 receptor [4])
C[C@H]1[C@H]2CC[C@H]3[C@@H]4CC=C5C[C@@H](N(C)c6ccc(C#N)cc6)CC[C@]5(C)[C@H]4CC[C@]23CN1C | 8.78 | 7.62 |  |  | 
C[C@H]1[C@H]2CC[C@H]3[C@@H]4CC=C5C[C@@H](N(C)C(=O)C6CC6)CC[C@]5(C)[C@H]4CC[C@]23CN1C | 7.22 | 6.42 |  |  | 
CC(=O)N[C@@H](CC(C)C)C(=O)N(C)[C@H]1CC[C@@]2(C)C(=CC[C@H]3[C@@H]4CC[C@@H]5[C@H](C)N(C)C[C@@]54CC[C@@H]32)C1 | 8.79 | 8.17 |  |  | 
C[C@H]1[C@H]2CC[C@H]3[C@@H]4CC=C5C[C@@H](N(C)S(=O)(=O)c6ccccc6)CC[C@]5(C)[C@H]4CC[C@]23CN1C | 8.11 | 7.21 |  |  | 
CCS(=O)(=O)N(C)[C@H]1CC[C@@]2(C)C(=CC[C@H]3[C@@H]4CC[C@@H]5[C@H](C)N(C)C[C@@]54CC[C@@H]32)C1 | 7.63 | 6.85 |  |  | 
CC(=O)N[C@@H](Cc1ccccc1)C(=O)N(C)[C@H]1CC[C@@]2(C)C(=CC[C@H]3[C@@H]4CC[C@@H]5[C@H](C)N(C)C[C@@]54CC[C@@H]32)C1 | 8.94 | 8.64 |  |  | 
COC(=O)N(C)[C@H]1CC[C@@]2(C)C(=CC[C@H]3[C@@H]4CC[C@@H]5[C@H](C)N(C)C[C@@]54CC[C@@H]32)C1 | 7.22 | 6.59 |  |  | 
CN1C[C@]23CC[C@H]4[C@@H](CC=C5C[C@@H](N(C)C)CC[C@@]54C)[C@@H]2CC[C@@H]3C1=O | 6.27 |  | 6.00 |  | 
O=C(c1ccc(OCCCc2cnc[nH]2)cc1)C1CC1 [CIPROXIFAN] |  |  |  | 0.000631 µM | 
C[C@H]1[C@H]2CC[C@H]3[C@@H]4CC=C5C[C@@H](N(C)C(=O)c6ccccc6)CC[C@]5(C)[C@H]4CC[C@]23CN1C | 7.91 | 7.42 |  |  | 
CN(C)CCCOc1c(Br)cc(CCN(C)C)cc1Br [APLYSAMINE] |  |  |  |  | 6.30
CC[C@@H](C)[C@@H](N)C(=O)N(C)[C@H]1CC[C@@]2(C)C(=CC[C@H]3[C@@H]4CC[C@@H]5[C@H](C)N(C)C[C@@]54CC[C@@H]32)C1 | 9.43 | 8.54 |  |  | 
C[C@H]1[C@H]2CC[C@H]3[C@@H]4CC=C5C[C@@H](N(C)C(=O)N(C)C)CC[C@]5(C)[C@H]4CC[C@]23CN1C | 7.30 | 6.53 |  |  | 
